According to US4172148A, “Ruminant feeds containing trichloroethyl esters of essential amino acids” (E. R. Squibb & Sons, Inc., priority 1978, dated 1979):

How the values were obtained:
[1] = tested on: volatile fatty acid concentrations in the rumen of fistulated wethers; assay: volatile fatty acid concentrations in the rumen of fistulated wethers, 454 g concentrate and 454 g chopped mixed hay (Example 6); assay type: in vivo, sheep; conditions: for Acetic:propionic ratio / Other acids (%) / Propionic acid (%) / Butyric acid (%) / Acetic acid (%) / Total acids: day 7
Excerpt: (§1) Mature sheep (wethers) fitted with permanent rumen fistulae were used to determine the effect of L-phenylalanine, 2,2,2-trichloroethyl ester on volatile fatty acid concentrations in vivo (3 wethers per treatment). The animals were individually penned and fed 227 g. of concentrate (described in Example 3) and 680 g. of alfalfa hay once daily. The test compound was admixed with the concentrate. The sheep were medicated for 7 days. Samples for analysis were obtained before (Day 0) and after treatment (Day 7) approximately 6 hours after feeding.
An experiment similar to that described in Example 5 was performed except that the animals (3 per treatment) were fed 454 g. of concentrate (described in Example 3) and 454 g. of chopped mixed (grasses) hay.

[2] = tested on: volatile fatty acid concentrations in the in vitro rumen fermentation; assay: in vitro rumen fermentation, volatile fatty acids, high concentrate substrate, alfalfa hay:concentrate 1:3 (Examples 4 and 7); set-up: species or system sheep; conditions: for Acetic acid / Acetic:propionic / Butyric acid / Propionic acid / Total acids: hay:concentrate 1:3
Experimental: (§2) A one gram sample of substrate ground through a 1 mm screen is weighed into 100 ml. lipless beakers equipped with gas-release valves. The substrate consists of alfalfa hay containing approximately 16% protein and a concentrate containing ground corn 60.7%, alfalfa meal 17.5%, molasses 10.0%, soybean meal 5.3%, wheat bran 5.0%, trace mineralized salt 1.0%, limestone 0.5% and Vitamin D 300,000 I.U./ton, mixed in the proportion 3:1. The experimental composition is added to the substrate. 25 ml. of filtered rumen fluid obtained from fasted sheep maintained on feed the same as the above mentioned substrate and 25 ml. of McDougal's buffer solution serve as the inoculum. The buffer solution is as follows:
(§3) The fermentation mixture is flushed with carbon dioxide and the vessel is capped with a gas release valve. The fermentation vessel (beaker) is placed in a water bath and incubated at 39° C.±1° for six hours. The sample is mixed every hour by shaking the beaker.
(§4) At the end of the 6-hour fermentation period the sample is strained through 4 layers of cheesecloth into a sample bottle containing 1 ml. saturated solution of mercuric chloride. The sample is frozen immediately until analyzed for the volatile fatty acids (VFA) (mg/100 ml.). Prior to analysis, each sample is acidified with 30% phosphoric acid and then analyzed by gas chromatography using a column containing 5% nonylphenoxypolyoxyethylene ethanol plus 0.5% phosphoric acid on 100-120 mesh Gas Chrom S. The acids determined are acetic, propionic, butyric, isobutyric, valeric and isovaleric acids. Total VFA is considered as the addition of these acids. The ratio of acetic: propionic (A:P) is obtained by dividing the concentration of acetic acid by that of propionic acid.
The procedure is described in Example 3. In this example, however, the substrate consisted of alfalfa hay and concentrate in the ratio of 1:3 and inoculum was obtained from sheep fed alfalfa and concentrate in the ratio of 1:3. The concentrate (Fit-N-Fresh) is commercially available from Agway, Inc. and contains grain products, plant protein products, processed grain by-products, cane molasses, minerals, vitamins and a preservative.
The 2,2,2-trichloroethyl ester of glycine was tested in vitro in a manner similar to that described in Example 4.

[3] = tested on: volatile fatty acid concentrations in the in vitro rumen fermentation; assay: in vitro rumen fermentation, volatile fatty acids, alfalfa hay:concentrate 3:1 (Examples 3 and 12); set-up: species or system sheep; conditions: for Acetic acid / Acetic:propionic / Butyric acid / Propionic acid / Total acids: 6 h, 39° C.
Experimental: as §2, §3, §4
The effect of various compounds alone on the volatile fatty acid concentrations was determined by the procedure of Example 3. […] A direct comparison between phenylalanine and phenylalanine trichloroethyl ester is provided.

[4] = tested on: volatile fatty acid concentrations in fistulated sheep; assay: volatile fatty acid concentrations in vivo in fistulated sheep, 227 g concentrate and 680 g alfalfa hay (Examples 5 and 8); conditions: for Acetic:propionic ratio / Other acids (%) / Butyric acid (%) / Propionic acid (%) / Acetic acid (%) / Total acids: day 7
Excerpt: as §1

Br.N[C@@H](Cc1ccccc1)C(=O)OCC(Cl)(Cl)Cl [L-Phenylalanine 2,2,2-trichloroethyl ester, hydrobromide] was tested, and the “Acetic:propionic ratio” value ([1]; 200 mg/head/day, pre-treatment 3.38, control day 7 3.54) was 2.65, the “Other acids (%)” value ([1]; 200 mg/head/day, pre-treatment 5.2, control day 7 6.6) was 8.2% and the “Propionic acid (%)” value ([1]; 200 mg/head/day, pre-treatment 17.5, control day 7 16.2) was 19.0%. For the same molecule, the “Butyric acid (%)” value ([1]; 200 mg/head/day, pre-treatment 18.4, control day 7 20.0) was 22.5%, the “Acetic acid (%)” value ([1]; 200 mg/head/day, pre-treatment 58.8, control day 7 57.3) was 50.3% and the Total acids ([1]; 200 mg/head/day, pre-treatment 731, control day 7 687) was 663 mg/100 ml. For the same molecule, the “Acetic:propionic ratio” value ([1]; 500 mg/head/day, pre-treatment 3.43, control day 7 3.54) was 2.18, the “Other acids (%)” value ([1]; 500 mg/head/day, pre-treatment 6.7, control day 7 6.6) was 9.8% and the “Propionic acid (%)” value ([1]; 500 mg/head/day, pre-treatment 16.8, control day 7 16.2) was 21.1%. The “Butyric acid (%)” value ([1]; 500 mg/head/day, pre-treatment 19.0, control day 7 20.0) was 23.5%, the “Acetic acid (%)” value ([1]; 500 mg/head/day, pre-treatment 57.5, control day 7 57.3) was 45.7% and the Total acids ([1]; 500 mg/head/day, pre-treatment 851, control day 7 687) was 734 mg/100 ml. The “effect on acetic:propionic ratio (in words)” value ([1]; fistulated wethers, 7 days) was “decreasing the acetic:propionic ratio”, the “effect on proportion of propionic acid (in words)” value ([1]; fistulated wethers, 7 days) was “effective in increasing the proportion of propionic acid” and the Acetic acid ([2]; 0.02 mg/ml) was 80 % of control. The “Acetic:propionic” value ([2]; 0.02 mg/ml) was 69 % of control, the Butyric acid ([2]; 0.02 mg/ml) was 114 % of control and the Propionic acid ([2]; 0.02 mg/ml) was 116 % of control. The Total acids ([2]; 0.02 mg/ml) was 95 % of control, the Acetic acid ([2]; 0.1 mg/ml) was 76 % of control and the “Acetic:propionic” value ([2]; 0.1 mg/ml) was 66 % of control. The Butyric acid ([2]; 0.1 mg/ml) was 113 % of control, the Propionic acid ([2]; 0.1 mg/ml) was 115 % of control and the Total acids ([2]; 0.1 mg/ml) was 92 % of control. For the same molecule, the Acetic acid ([2]; 0.2 mg/ml) was 76 % of control, the “Acetic:propionic” value ([2]; 0.2 mg/ml) was 65 % of control and the Butyric acid ([2]; 0.2 mg/ml) was 113 % of control. For the same molecule, the Propionic acid ([2]; 0.2 mg/ml) was 116 % of control, the Total acids ([2]; 0.2 mg/ml) was 92 % of control and the Acetic acid ([2]; 0.4 mg/ml) was 79 % of control. For the same molecule, the “Acetic:propionic” value ([2]; 0.4 mg/ml) was 65 % of control, the Butyric acid ([2]; 0.4 mg/ml) was 116 % of control and the Propionic acid ([2]; 0.4 mg/ml) was 120 % of control. For the same molecule, the Total acids ([2]; 0.4 mg/ml) was 96 % of control, the Acetic acid ([2]; 1.0 mg/ml) was 76 % of control and the “Acetic:propionic” value ([2]; 1.0 mg/ml) was 64 % of control. The Butyric acid ([2]; 1.0 mg/ml) was 112 % of control, the Propionic acid ([2]; 1.0 mg/ml) was 119 % of control and the Total acids ([2]; 1.0 mg/ml) was 92 % of control. The “effect on acetic:propionic ratio (in words)” value ([2]; high concentrate substrate) was “decreasing the acetic:propionic ratio”, the “effect on propionic acid concentration (in words)” value ([2]; high concentrate substrate) was “effective in increasing the propionic acid concentration” and the Acetic acid ([3]; 0.02 mg/ml) was 95 % of control. For the same molecule, the “Acetic:propionic” value ([3]; 0.02 mg/ml) was 83 % of control, the Butyric acid ([3]; 0.02 mg/ml) was 106 % of control and the Propionic acid ([3]; 0.02 mg/ml) was 115 % of control. The Total acids ([3]; 0.02 mg/ml) was 101 % of control, the Acetic acid ([3]; 0.04 mg/ml) was 85 % of control and the “Acetic:propionic” value ([3]; 0.04 mg/ml) was 77 % of control. For the same molecule, the Butyric acid ([3]; 0.04 mg/ml) was 114 % of control, the Propionic acid ([3]; 0.04 mg/ml) was 111 % of control and the Total acids ([3]; 0.04 mg/ml) was 95 % of control. For the same molecule, the Acetic acid ([3]; 0.08 mg/ml) was 95 % of control, the “Acetic:propionic” value ([3]; 0.08 mg/ml) was 84 % of control and the Butyric acid ([3]; 0.08 mg/ml) was 108 % of control. The Propionic acid ([3]; 0.08 mg/ml) was 112 % of control, the Total acids ([3]; 0.08 mg/ml) was 100 % of control and the Acetic acid ([3]; 0.1 mg/ml) was 92 % of control. The “Acetic:propionic” value ([3]; 0.1 mg/ml) was 74 % of control, the Butyric acid ([3]; 0.1 mg/ml) was 116 % of control and the Propionic acid ([3]; 0.1 mg/ml) was 124 % of control. The Total acids ([3]; 0.1 mg/ml) was 102 % of control, the Acetic acid ([3]; 0.2 mg/ml) was 90 % of control and the “Acetic:propionic” value ([3]; 0.2 mg/ml) was 75 % of control. For the same molecule, the Butyric acid ([3]; 0.2 mg/ml) was 114 % of control, the Propionic acid ([3]; 0.2 mg/ml) was 120 % of control and the Total acids ([3]; 0.2 mg/ml) was 100 % of control. For the same molecule, the Acetic acid ([3]; 0.4 mg/ml) was 83 % of control, the “Acetic:propionic” value ([3]; 0.4 mg/ml) was 73 % of control and the Butyric acid ([3]; 0.4 mg/ml) was 115 % of control. The Propionic acid ([3]; 0.4 mg/ml) was 114 % of control, the Total acids ([3]; 0.4 mg/ml) was 94 % of control and the “effect on acetic to propionic acid ratio (in words)” value ([3]; at all levels (0.02-0.4 mg/ml)) was “decreasing the acetic to propionic acid ratio”. For the same molecule, the “effect on propionic acid concentrations (in words)” value ([3]; at all levels (0.02-0.4 mg/ml)) was “effective in increasing the propionic acid concentrations”, the “Acetic:propionic ratio” value ([4]; 200 mg/head/day, pretreatment 3.52, control day 7 3.56) was 3.11 and the “Other acids (%)” value ([4]; 200 mg/head/day, pretreatment 5.4, control day 7 5.5) was 5.8%. For the same molecule, the “Butyric acid (%)” value ([4]; 200 mg/head/day, pretreatment 12.8, control day 7 15.5) was 15.1%, the “Propionic acid (%)” value ([4]; 200 mg/head/day, pretreatment 18.2, control day 7 17.4) was 19.3% and the “Acetic acid (%)” value ([4]; 200 mg/head/day, pretreatment 63.7, control day 7 61.6) was 59.7%. For the same molecule, the Total acids ([4]; 200 mg/head/day, pretreatment 657, control day 7 698) was 667 mg/100 ml, the “Acetic:propionic ratio” value ([4]; 500 mg/head/day, pretreatment 3.39, control day 7 3.56) was 2.43 and the “Other acids (%)” value ([4]; 500 mg/head/day, pretreatment 5.7, control day 7 5.5) was 8.1%. The “Butyric acid (%)” value ([4]; 500 mg/head/day, pretreatment 12.7, control day 7 15.5) was 18.0%, the “Propionic acid (%)” value ([4]; 500 mg/head/day, pretreatment 18.6, control day 7 17.4) was 21.5% and the “Acetic acid (%)” value ([4]; 500 mg/head/day, pretreatment 63.1, control day 7 61.6) was 52.5%. For the same molecule, the Total acids ([4]; 500 mg/head/day, pretreatment 614, control day 7 698) was 624 mg/100 ml, the “effect on acetic:propionic ratio (in words)” value ([4]; fistulated sheep, 7 days) was “decreased the acetic:propionic ratio” and the “effect on proportion of propionic acid (in words)” value ([4]; fistulated sheep, 7 days) was “increased the proportion of propionic acid”.
